As usually defined, the Kd is the equilibrium constant for the complex coming apart.

From PMC10105947, “Discovery of novel amino acid production traits by evolution of synthetic co-cultures” (Microbial Cell Factories, 2023) come the findings set out here.

The target of test [1] is T1, ArgT (Corynebacterium glutamicum, UniProt Q8NQU2).
T1 construct: His10-ArgT, variant with cleavable His-tag and lacking the signal peptide
The test can be described thus: isothermal titration calorimetry, purified His10-ArgT. In kind it is binding. A general note: ITC needs no label: the signal is the heat of the interaction.

The target of test [2] is T1, ArgT. Briefly: isothermal titration calorimetry, purified His10-ArgT (one measurement). In kind it is binding.

T1 sequence (Q8NQU2 27-304): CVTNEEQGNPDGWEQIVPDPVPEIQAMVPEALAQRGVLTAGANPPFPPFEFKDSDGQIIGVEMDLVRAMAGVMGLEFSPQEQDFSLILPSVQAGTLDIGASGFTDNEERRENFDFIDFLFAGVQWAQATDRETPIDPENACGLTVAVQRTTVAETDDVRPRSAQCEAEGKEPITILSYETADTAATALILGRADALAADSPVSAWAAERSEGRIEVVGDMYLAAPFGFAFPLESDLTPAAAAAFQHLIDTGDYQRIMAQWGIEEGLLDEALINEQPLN

Regarding `N=C(N)NCCC[C@H](N)C(=O)O` [L-arginine], the Kd on ArgT [1] stood at 29.5 ± 4.8 nM. `NC(=O)NCCC[C@H](N)C(=O)O` [L-citrulline] yielded a Kd on ArgT [2] of 432 nM.
